Results published in patent US10368545B2, “Substituted 2-thioimidazolylcarboxamides as pesticides” (BAYER CROPSCIENCE AKTIENGESELLSCHAFT, priority 2015, dated 2019).
Where “and” joins values, the source holds several entries; their conditions need not be identical. Equal entries are not always repeated. Where two headings read alike, the source gives them in different places.

Key:
[1] = log P by HPLC on reversed-phase C18 columns (OECD Guideline 117); type: physicochemical
Method: The log P values were determined in accordance with OECD Guideline 117 (EC Directive 92/69/EEC) by HPLC (high-performance liquid chromatography) using reversed-phase (RP) columns (C18), by the following methods:
[a] The LC-MS determination in the acidic range was carried out at pH 2.7 with 0.1% aqueous formic acid and acetonitrile (contains 0.1% formic acid) as mobile phases; linear gradient from 10% acetonitrile to 95% acetonitrile.
[b] LC-MS determination in the neutral range was carried out at pH 7.8 with 0.001 molar aqueous ammonium hydrogencarbonate solution and acetonitrile as mobile phases; linear gradient from 10% acetonitrile to 95% acetonitrile.

[2] = tested on: green peach aphid (Myzus persicae); experiment: Myzus persicae spray test (Chinese cabbage leaf discs); type: in vivo; settings: for pest or weed control at 500 g/ha: Myzus persicae, foliar, read-out: efficacy (aphids killed)
Method: Myzus persicae—Spray Test
Solvent: 78 parts by weight of acetone • • 1.5 parts by weight of dimethylformamide
(§1) Emulsifier: alkylaryl polyglycol ether
(§2) To produce a suitable active compound preparation, 1 part by weight of active compound is dissolved using the stated parts by weight of solvent and made up with water containing an emulsifier concentration of 1000 ppm until the desired concentration is attained. To produce further test concentrations, the preparation is diluted with emulsifier-containing water.
Discs of Chinese cabbage leaves (Brassica pekinensis) infested by all stages of the green peach aphid (Myzus persicae) are sprayed with an active compound preparation of the desired concentration.
After 5 or 6 days, the efficacy in % is determined. 100% means that all the aphids were killed; 0% means that no aphids were killed.

[3] = tested on: green peach aphid (Myzus persicae); experiment: Contrasting example: Myzus persicae spray test (MYZUPE); type: in vivo; settings: for pest or weed control at 100 g/ha: Myzus persicae, 144 h, read-out: % efficacy
Method: Myzus persicae—Spray Test (MYZUPE)
Solvents: 78.0 parts by weight of acetone • • 1.5 parts by weight of dimethylformamide
as §1, §2
Discs of Chinese cabbage leaves (Brassica pekinensis), infested by all stages of the green peach aphid (Myzus persicae) are sprayed with an active compound preparation of the desired concentration.
After the desired period of time, the efficacy in % is determined. 100% means that all aphids were killed; 0% means that no aphids were killed.

[4] = reversed-phase C18 HPLC column, pH 2.7, acidic range, pH 2.7, 0.1% aqueous formic acid / acetonitrile, read-out: log P[a]
[5] = reversed-phase C18 HPLC column, pH 7.8, neutral range, pH 7.8, 0.001 molar aqueous ammonium hydrogencarbonate / acetonitrile, read-out: log P[n]
[6] = application rate 500 g/ha, after 5 or 6 days, Chinese cabbage leaf discs
[7] = reversed-phase C18 HPLC column, pH 2.7, method [a], read-out: logP[a]
[8] = reversed-phase C18 HPLC column, pH 7.8, method [b], read-out: logP[b]

Compound | logP[a] ([1]; method [a]) | logP[b] ([1]; method [b]) | efficacy (aphids killed) [2, 6] [%] | % efficacy ([3]; MYZUPE, 100 g ai/ha, 6 dat) [%] | also measured
Cc1cc(C)nc(Sc2ncc(C(=O)N(C)c3cccnc3)n2C)n1 [I-A-1] |  |  |  |  | log P[a] ([1]; acidic range, pH 2.7, 0.1% aqueous formic acid / acetonitrile): 1.26; log P[n] ([1]; neutral range, pH 7.8, 0.001 molar aqueous ammonium hydrogencarbonate / acetonitrile): 1.46; chromatographic logP [1, 4]: 1.31; chromatographic logP [1, 5]: 1.41; pest or weed control at 500 g/ha [2, 6]: 100%; pest or weed control at 100 g/ha ([3]; MYZUPE, 100 g ai/ha, 6 dat): 100%
CN(C(=O)c1cnc(SCC2CC2)n1C)c1cccnc1 [I-A-2] |  |  |  |  | chromatographic logP [1, 4]: 1.28; chromatographic logP [1, 5]: 1.81; pest or weed control at 500 g/ha [2, 6]: 100%; pest or weed control at 100 g/ha ([3]; MYZUPE, 100 g ai/ha, 6 dat): 90%
CN(C(=O)c1cnc(Sc2ncccn2)n1C)c1cccnc1 [I-A-3] |  |  |  |  | chromatographic logP [1, 4]: 0.69; chromatographic logP [1, 5]: 0.98; pest or weed control at 500 g/ha [2, 6]: 100%; pest or weed control at 100 g/ha ([3]; MYZUPE, 100 g ai/ha, 6 dat): 90%
CCCCSc1ncc(C(=O)N(C)c2cccnc2)n1C [I-A-5] | 1.67 | 1.99 | 90 | 100 | 
CN(C(=O)c1cnc(S(C)(=O)=O)n1C)c1cccnc1 [I-A-8] | 0.45 | 0.67 | 100 | 90 | 
CSc1cccc(Sc2ncc(C(=O)N(C)c3cccnc3)n2C)c1 [I-A-9] | 2.0 | 2.12 |  | 70 | efficacy (aphids killed) ([2]; application rate 20 g/ha, after 5 or 6 days, Chinese cabbage leaf discs): 90%
CN(C(=O)c1cnc(SCC(F)(F)F)n1C)c1cccnc1 [I-A-10] | 1.41 | 1.54 | 100 | 100 | 
CN(C(=O)c1cnc(Sc2ccccc2)n1C)c1cccnc1 [I-A-11] | 1.55 | 1.75 | 100 | 90 | 
Cc1ccc(Sc2ncc(C(=O)N(C)c3cccnc3)n2C)cc1 [I-A-12] | 1.89 | 2.03 | 90 | 70 | 
CCSCCSc1ncc(C(=O)N(C)c2cccnc2)n1C [I-A-14] | 1.61 | 1.87 | 90 | 90 | 
COCCSc1ncc(C(=O)N(C)c2cccnc2)n1C [I-A-18] | 0.76 | 1.14 | 100 | 90 | 
CC(C)Sc1ncc(C(=O)N(C)c2cccnc2)n1C [I-A-19] | 1.23 | 1.53 | 100 | 90 | 
CCCSc1ncc(C(=O)N(C)c2cccnc2)n1C [I-A-21] | 1.31 | 1.60 | 100 | 100 | 
CCOCCSc1ncc(C(=O)N(C)c2cccnc2)n1C [I-A-22] | 1.04 | 1.41 | 100 | 90 | 
CSCCSc1ncc(C(=O)N(C)c2cccnc2)n1C [I-A-26] | 1.23 | 1.55 | 100 | 70 | 
C=CCSc1ncc(C(=O)N(C)c2cccnc2)n1C [I-A-27] | 1.08 and 1.11 | 1.40 | 90 | 70 | 
C#CCSc1ncc(C(=O)N(C)c2cccnc2)n1C [I-A-30] | 0.87 | 1.22 | 90 | 90 | 
CCSc1ncc(C(=O)N(C)c2cccnc2)n1C [I-A-36] | 0.95 | 1.31 | 90 | 90 | 

Compound | logP[a] ([1]; method [a]) | logP[b] ([1]; method [b]) | efficacy (aphids killed) [2, 6] [%] | % efficacy ([3]; MYZUPE, 100 g ai/ha, 6 dat) [%] | also measured
CN(C(=O)c1cnc(SC(F)(F)F)n1C)c1cccnc1 [I-A-37] |  |  |  |  | chromatographic logP [1, 7]: 1.29; chromatographic logP [1, 8]: 1.45; pest or weed control at 500 g/ha [2]: 100%; pest or weed control at 100 g/ha [3]: 100%
CN(C(=O)c1cnc(SC(F)F)n1C)c1cccnc1 [I-A-38] |  |  |  |  | chromatographic logP ([1]; pH 2.7, method [a], read-out: logP[a]): 0.91; chromatographic logP ([1]; pH 7.8, method [b], read-out: logP[b]): 1.17; pest or weed control at 500 g/ha [2]: 90%; pest or weed control at 100 g/ha [3]: 70%
CCS(=O)(=O)c1ncc(C(=O)N(C)c2cccnc2)n1C [I-A-40] | 0.68 | 0.88 | 100 | 90 | 
CNC(=O)C[S+]([O-])c1ncc(C(=O)N(C)c2cccnc2)n1C (centres unmarked) [I-A-43] |  |  |  |  | chromatographic logP [1, 7]: 0.27; chromatographic logP [1, 8]: 0.22; pest or weed control at 100 g/ha ([3]; MYZUPE, 100 g ai/ha, 6 dat): 70%
CSc1ncc(C(=O)N(C)c2cccnc2)n1C [I-A-45] |  |  |  |  | chromatographic logP [1, 7]: 0.54; chromatographic logP [1, 8]: 1.04; pest or weed control at 500 g/ha [2, 6]: 100%; pest or weed control at 100 g/ha ([3]; MYZUPE, 100 g ai/ha, 6 dat): 90%
CN(C(=O)c1cnc(Sc2cc(Cl)c(Cl)cc2Cl)n1C)c1cccnc1 [I-A-56] | 2.86 | 2.92 |  | 70 | 
CN(C(=O)c1cnc(Sc2cccc(C(F)(F)F)c2)n1C)c1cccnc1 [I-A-61] |  |  | 90 | 90 | 
CN(C(=O)c1cnc([S+]([O-])c2cc(Cl)cc(Cl)c2)n1C)c1cccnc1 (centres unmarked) [I-A-77] |  |  | 90 | 70 | 
Cc1cnc(Sc2ncc(C(=O)N(C)c3cccnc3)n2C)nc1C [I-A-103] | 1.23 |  | 100 |  | 
Cc1ccc(Sc2ncc(C(=O)N(C)c3cccnc3)n2C)nc1 [I-A-109] |  |  | 90 | 70 | 
CN(C(=O)c1cnc(SCc2cccnc2)n1C)c1cccnc1 [I-A-119] | 0.39 | 1.15 | 90 |  | 
CN(C(=O)c1cnc(SCc2ccco2)n1C)c1cccnc1 [I-A-120] | 1.34 | 1.55 | 90 |  | 
CN(C(=O)c1cnc(SCc2c(F)cccc2F)n1C)c1cccnc1 [I-A-123] | 1.69 | 1.92 | 90 |  | 
COc1cccc(F)c1CSc1ncc(C(=O)N(C)c2cccnc2)n1C [I-A-124] | 1.72 | 2.03 | 90 |  | 
CN(C(=O)c1cnc(SCc2c(F)cccc2Cl)n1C)c1cccnc1 [I-A-127] | 1.89 | 2.09 | 90 |  | 
Cc1cc([N+](=O)[O-])nn1CSc1ncc(C(=O)N(C)c2cccnc2)n1C [I-A-131] | 1.28 | 1.40 | 90 |  | 
CN(C(=O)c1cnc(SCC(=O)NC2CC2)n1C)c1cccnc1 [I-A-132] | 0.59 | 0.94 | 90 |  | 
